# Measured values from patent publication US20230167127A1, “COMPOUNDS AND THEIR USE IN THE TREATMENT OF BACTERIAL INFECTION” (Hoffmann-La Roche Inc., priority 2020, published 2023).
# Test system: Escherichia coli ATCC 25922
# Assay: 50% growth inhibitory concentration (IC50) determination, Iso-Sensitest broth dilution
# Format: cell-based
# Settings: Escherichia coli, ATCC25922, 16 h, strain Escherichia coli ATCC 25922; 10-point broth dilution, optical density at 600 nm over 16 h; read-out: Escherichia coli growth inhibition IC50
# How it was run: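 Growth was tracked as optical density at 600 nm every 20 minutes for 16 h at 35±2° C. Compounds from DMSO stocks were serially diluted twofold over 10 points (e.g. 50–0.097 μM final) in Iso-Sensitest broth. Inhibition computed in log-phase growth to give IC50.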
row,SMILES,IC50
1,"CNC(=O)COc1ncc2c(c1C)CC(CNCCC1CN(c3ccc4c(n3)NC(=O)CO4)C(=O)O1)C2 (stereo not shown) [Example 223, N-methyl-2-((4-methyl-6-(((2-(2-oxo-3-(3-oxo-3,4-dihydro-2H-pyrido[3,2-b][1,4]oxazin-6-yl)oxazolidin-5-yl)ethyl)amino)methyl)-6,7-dihydro-5H-cyclopenta[c]pyridin-3-yl)oxy)acetamide]",389 nM
2,"Cc1c(OCC2(N)CC2)nc(-c2nccs2)c2c1CC(CNCCC1CN(c3ccc4c(n3)NC(=O)CO4)C(=O)O1)C2 (stereo not shown) [Example 218, 6-[5-[2-[[3-[(1-aminocyclopropyl)methoxy]-4-methyl-1-(1,3-thiazol-2-yl)-6,7-dihydro-5H-cyclopenta[c]pyridin-6-yl]methylamino]ethyl]-2-oxo-1,3-oxazolidin-3-yl]-4H-pyrido[3,2-b][1,4]oxazin-3-one]",< 97.7 nM
3,"NC(=O)COc1ccc2c(c1F)CC(CNCCC1CN(c3cnc4c(n3)NC(=O)CO4)C(=O)O1)C2 (stereo not shown) [Example 413, 2-[[4-fluoro-2-[[2-[2-oxo-3-(3-oxo-4H-pyrazino[2,3-b][1,4]oxazin-6-yl)-1,3-oxazolidin-5-yl]ethylamino]methyl]-2,3-dihydro-1H-inden-5-yl]oxy]acetamide]",< 97.7 nM
4,"Cc1ncc(F)c2c1CC(CNCCC1CN(c3ccc4c(n3)NC(=O)CO4)C(=O)O1)C2 (stereo not shown) [Example 36, 6-[5-[2-[(4-fluoro-1-methyl-6,7-dihydro-5H-cyclopenta[c]pyridin-6-yl)methylamino]ethyl]-2-oxo-1,3-oxazolidin-3-yl]-4H-pyrido[3,2-b][1,4]oxazin-3-one]",< 97.7 nM
5,"CC(=O)NCCOc1ccc2c(c1C#N)CC(CNCCC1CN(c3ccc4c(n3)NC(=O)CO4)C(=O)O1)C2 (stereo not shown) [Example 56, N-[2-[[4-cyano-2-[[2-[2-oxo-3-(3-oxo-4H-pyrido[3,2-b][1,4]oxazin-6-yl)-1,3-oxazolidin-5-yl]ethylamino]methyl]-2,3-dihydro-1H-inden-5-yl]oxy]ethyl]acetamide]",941 nM
6,"O=C1COc2ccc(N3CC(CCNC4Cc5ccc(Cl)cc5C4)OC3=O)nc2N1 (stereo not shown) [Example 11, 6-[5-[2-[(5-chloro-2,3-dihydro-1H-inden-2-yl)amino]ethyl]-2-oxo-1,3-oxazolidin-3-yl]-4H-pyrido[3,2-b][1,4]oxazin-3-one]",2400 nM
7,"CNC(=O)COc1ccc2c(c1Cl)CC(CNCCC1CN(c3cnc4c(n3)NC(=O)CO4)C(=O)O1)C2 (stereo not shown) [Example 109, 2 2-[[4-chloro-2-[[2-[2-oxo-3-(3-oxo-4H-pyrazino[2,3-b][1,4]oxazin-6-yl)-1,3-oxazolidin-5-yl]ethylamino]methyl]-2,3-dihydro-1H-inden-5-yl]oxy]-N-methylacetamide]",98 nM
8,"N#Cc1cccc2c1CC(CNCCC1CN(c3ccc4c(n3)NC(=O)CS4)C(=O)O1)C2 (stereo not shown) [Example 64, 2-[[2-[2-oxo-3-(3-oxo-4H-pyrido[3,2-b][1,4]thiazin-6-yl)-1,3-oxazolidin-5-yl]ethylamino]methyl]-2,3-dihydro-1H-indene-4-carbonitrile]",< 97.7 nM
9,"Cc1cnc(C)c2c1CC(CNCCC1CN(c3ccc4c(n3)NC(=O)CO4)C(=O)O1)C2 (stereo not shown) [Example 98, 6-[5-[2-[(1,4-dimethyl-6,7-dihydro-5H-cyclopenta[c]pyridin-6-yl)methylamino]ethyl]-2-oxo-1,3-oxazolidin-3-yl]-4H-pyrido[3,2-b][1,4]oxazin-3-one]",< 97.7 nM
10,"Cc1ncc(F)c2c1CC(NCCCC1CN(c3ccc4c(n3)NC(=O)CO4)C(=O)O1)C2 (stereo not shown) [Example 78, 6-[5-[3-[(4-fluoro-1-methyl-6,7-dihydro-5H-cyclopenta[c]pyridin-6-yl)amino]propyl]-2-oxo-1,3-oxazolidin-3-yl]-4H-pyrido[3,2-b][1,4]oxazin-3-one]",155 nM
11,"CCOC(=O)c1cn(CC)c2c3c(c(F)cc2c1=O)CC(CNCCC1CN(c2ccc4c(n2)NC(=O)CO4)C(=O)O1)C3 (stereo not shown) [Example 225, ethyl 1-ethyl-6-fluoro-4-oxo-8-[[2-[2-oxo-3-(3-oxo-4H-pyrido[3,2-b][1,4]oxazin-6-yl)-1,3-oxazolidin-5-yl]ethylamino]methyl]-8,9-dihydro-7H-cyclopenta[h]quinoline-3-carboxylate]",547 nM
12,"COCCNCCOc1nc(C)c2c(c1C)CC(CNCCC1CN(c3ccc4c(n3)NC(=O)CO4)C(=O)O1)C2 (stereo not shown) [Example 202, 6-[5-[2-[[3-[2-(2-methoxyethylamino)ethoxy]-1,4-dimethyl-6,7-dihydro-5H-cyclopenta[c]pyridin-6-yl]methylamino]ethyl]-2-oxo-1,3-oxazolidin-3-yl]-4H-pyrido[3,2-b][1,4]oxazin-3-one]",135 nM
13,"NC1c2cccc(Cl)c2CC1CNCCc1nn(-c2ccc3c(n2)NC(=O)CO3)c(=O)o1 (racemic) [Example 153, 6-[5-[2-[(rac-1,2-trans-1-amino-4-chloro-2,3-dihydro-1H-inden-2-yl)methylamino]ethyl]-2-oxo-1,3,4-oxadiazol-3-yl]-4H-pyrido[3,2-b][1,4]oxazin-3-one]",198 nM

# More lines, now with the values ahead:
row,IC50,SMILES
1,< 97.7 nM,"N#Cc1cccc2c1CC(CN1CCC3(CC1)CN(c1ccc4c(n1)NC(=O)CO4)C(=O)O3)C2 (stereo not shown) [Example 28, 2-[ [2-oxo-3-(3-oxo-4H-pyrido[3,2-b] [1,4]oxazin-6-yl)-1-oxa-3,8-diazaspiro[4.5]decan-8-yl]methyl]-2,3-dihydro-1H-indene-4-carbonitrile]"
2,< 97.7 nM,"N#Cc1cc(OCC2(N)CC2)cc2c1CC(CNCCC1CN(c3ccc4c(n3)NC(=O)CO4)C(=O)O1)C2 (stereo not shown) [Example 185, 6-[(1-aminocyclopropyl)methoxy]-2-[[2-[2-oxo-3-(3-oxo-4H-pyrido[3,2-b][1,4]oxazin-6-yl)-1,3-oxazolidin-5-yl]ethylamino]methyl]-2,3-dihydro-1H-indene-4-carbonitrile]"
3,< 97.7 nM,"N#Cc1cccc2c1CC(N1CCC(C3CN(c4cnc5c(n4)NC(=O)CO5)C(=O)O3)CC1)C2 (stereo not shown) [Example 349, 2-[4-[2-oxo-3-(3-oxo-4H-pyrazino[2,3-b][1,4]oxazin-6-yl)-1,3-oxazolidin-5-yl]piperidin-1-yl]-2,3-dihydro-1H-indene-4-carbonitrile]"
4,< 97.7 nM,"NC1(COc2cc(F)c3c(c2)CC(CN2CCC4(CC2)CN(c2cnc5c(n2)NC(=O)CO5)C(=O)O4)C3)CC1 (stereo not shown) [Example 257, 6-[8-[[6-[(1-Aminocyclopropyl)methoxy]-4-fluoro-2,3-dihydro-1H-inden-2-yl]methyl]-2-oxo-1-oxa-3,8-diazaspiro[4.5]decan-3-yl]-4H-pyrazino[2,3-b][1,4]oxazin-3-one; formic acid]"
5,< 97.7 nM,"N[C@@H]1c2cc(OCC3(N)CC3)cc(Cl)c2C[C@H]1CN1CCC2(CC1)CN(c1ccc3c(n1)NC(=O)CO3)C(=O)O2 (racemic) [Example 274, 6-[2-Oxo-8-[[rac-1,2-trans-1-amino-6-[(1-aminocyclopropyl)methoxy]-4-chloro-2,3-dihydro-1H-inden-2-yl]methyl]-1-oxa-3,8-diazaspiro[4.5]decan-3-yl]-4H-pyrido[3,2-b][1,4]oxazin-3-one; formic acid]"
6,< 97.7 nM,"C[C@@H](N)COc1cc(F)c2c(c1)CC(CN1CCC3(CC1)CN(c1cnc4c(n1)NC(=O)CO4)C(=O)O3)C2 (stereo partly drawn) [Example 357, 6-[8-[[6-[(2R)-2-aminopropoxy]-4-fluoro-2,3-dihydro-1H-inden-2-yl]methyl]-2-oxo-1-oxa-3,8-diazaspiro[4.5]decan-3-yl]-4H-pyrazino[2,3-b][1,4]oxazin-3-one; formic acid]"
